The source of these data is publication PMC10239758 (European journal of medicinal chemistry, 2023).

Assay [1] has as its system mutant Mtb strain IAR2. The assay is classed as cell-based, Mycobacterium tuberculosis.
The test system of assay [2] is Mtb TF274. The experiment in a line: microbe, parasite or virus in culture. Format: cell-based. As to conditions: Mycobacterium tuberculosis, TF274, read-out: Mtb MIC TF274/ XDR.
The test system of assay [3] is Mtb KZN494. Nature of the assay: microbe, parasite or virus in culture. The assay is classed as cell-based. The following applies: Mycobacterium tuberculosis, KZN494, read-out: Mtb MIC KZN494/ MDR.

Molecules are shown by their SMILES. Converted amounts (≈) assume the structure as drawn.

As for `c1ccc(-c2ccc(-c3ccnc(CN4CCC5(CCCC5)CC4)c3)cc2)cc1` [Compound 62, 8-((4-([1,1'-Biphenyl]-4-yl)pyridin-2-yl)methyl)-8-azaspiro[4.5]decane], the “MIC IAR2” value in assay [1] amounted to 1 µg/mL (≈ 2.61 µM). Besides, the MIC in assay [2] is 0.0039 µg/mL (≈ 0.0102 µM); in assay [3], 0.0156 to 0.0313 µg/mL (≈ 0.0408 to 0.0818 µM).
